Entries after “also recorded” stand apart in the source; their conditions may differ.

The values below come from patent publication US20050120398A1, “Animal model for HCV infection” (Vertex Pharmaceuticals Incorporated, priority 2003, published 2005).

One test relates to Ad.WT.HCVpro. Nature of the test: Liver injury in mice infected with adenovirus expressing WT HCV protease. To be noted: 300 mg/kg orally twice a day for the first three days; 10^11 IFU/mice; sacrificed after 7 days.
The next test deals with Wild type HCV protease. Kind of test: Steatosis associated with HCV protease expression, Oil Red O staining of liver sections. Type of test: in vivo, SCID mice. To be noted: 300 mg/kg BID oral for the initial 3 days; 10^11 IFU/mouse; sacrificed at 7 days. The procedure: FIG. 25 depicts that steatosis associated with HCV protease expression can be ameliorated by HCV protease inhibitor VX-950. SCID mice were injected with 10^11 IFU/mouse of replication defective adenovirus expressing Wild type HCV protease or mutant HCV protease or SEAP alone (n=6). One group of mice (n=6) injected with adenovirus expressing wild type HCV protease were treated with 300 mg/kg BID via oral route for the initial 3 days. All the mice were sacrificed at 7 days and liver sections were stained with Oil Red O. A significant accumulation of fat in the livers of mice expressing wild type HCV protease compared to either mutant HCV protease or SEAP alone groups (20× magnification).
1. Cryostat frozen sections of livers stored at −80° C. were tested.
2. The Oil Red O Solution was prepared as follows:
a) Stock Solution Oil Red O: 500 mg Oil red O stain (Sigma O-0625) was dissolved in 100 ml isopropanol at room temperature overnight with stirring. The solution was filtered through a #1 Whatman filter. The solution was stored at room temperature protected from light.
b) Working Oil Red Solution was prepared fresh the day of assay. 40% water was mixed with 60% Oil Red O stock by inversion.
c) The working solution was kept at room temperature for 1 hour before filtering. Particulate material was filtered out using a #1 Whatman filter paper.
3. […]
13. The results were assessed by microscopy.

Test [1] has as its system Ad.MT.HCVpro (mutant HCV protease fused with SEAP). Nature of the test: HCV protease mouse model: SEAP in serum, mutant HCV protease adenovirus. The format is in vivo, SCID mice. To be noted: 300 mg/kg orally twice a day; 10^9.5 IFU/mice Ad.MT.HCVpro; serum 24 hours post-infection.

Turning to `CCC[C@H](NC(=O)[C@@H]1[C@H]2CCC[C@H]2CN1C(=O)[C@@H](NC(=O)[C@@H](NC(=O)c1cnccn1)C1CCCCC1)C(C)(C)C)C(=O)C(=O)NC1CC1` [VX-950], in the test with Ad.WT.HCVpro, the “protection from liver injury (gross appearance and H&E liver pathology)” value is recorded as “protects mice from Liver injury”. Besides, the “amelioration of steatosis (Oil Red O staining)” value with Wild type HCV protease is “effective at ameliorating steatosis; also recorded: ameliorated”. For the same molecule, the “effect on Mutant HCV protease activity (SEAP in serum)” value in test [1] is recorded as “No effect”.
